Source: US12714678B2, “Peptides and methods of treating sepsis, atherosclerosis, thrombosis, stroke, heart attack and inflammation” (THE BOARD OF TRUSTEES OF THE UNIVERSITY OF ILLINOIS, priority 2019, dated 2026)
Where a SMILES comes first, the peptide text is derived from it. Where no end group is shown, it is not given here. The star is where a group is joined. Myristoyl = CCCCCCCCCCCCCC(=O)*

Legend:
C57/BL6 mice = assay: Reverse passive Arthus (rpA) reaction; assay type: in vivo, mouse; settings: 5 μmol/kg, vs scrambled peptide
Description: C57/BL6 mice were anesthetized by i.p. injection of a mixture of ketamine and xylazine (100 mg/kg and 16 mg/kg mouse weight), and the medial surface of the mouse back was shaved. Shaved mice received intradermal injections of rabbit anti-bovine serum albumin (BSA) antibody (6 μg/μL, MP Biomedicals, OH) in 25 μL of 0.9% NaCl, followed by i.v. injection of BSA (75 μg/g mouse weight) as well as the peptide inhibitors (5 μmol/kg mouse weight) in 100 μL sterile 0.9% NaCl. In addition, control sites received 25 μL of PBS in parallel. Four hours after injection, mice were euthanized and inflamed or control skin samples at each injection site were collected. The hemoglobin (Hb) contents in the skin samples were quantified by hemoglobin colorimetric assay kit (Cayman Chemical, Ann Arbor, MI).

C57BL/6 mice [1] = assay: Tail bleeding time; settings: M3mP6 HLPN 10 μmol/kg; aspirin 4.3 mg/kg; clopidogrel 4 mg/kg; ticagrelor 3 mg/kg; cangrelor 30 μg/kg; MB2mP6
Description: M3mP6 was administered via retro-orbital injection 15 minutes prior to procedure.
Tail bleeding time was performed as previously described (21, 39). Eight- to 10-week-old C57BL/6 mice were anesthetized with isoflurane. After cutting 0.5-cm-long segment of the distal tip of the tail, their tails were immersed in 0.15 M NaCl immediately at 37° C. Tail bleeding time was defined as the time between cutting tail and stable cessation of bleeding (no rebleeding within 60s). […] If bleeding persisted at 15 minute time point, bleeding was stopped by application of pressure. Data were analyzed using Mann-Whitney test to compare medians between groups.
Tail bleeding time was performed as previously described (16, 29). Eight- to 10-week-old C57BL/6 mice weighing 20-25 g were anesthetized with isoflurane. After cutting a 0.5-cm-long segment off the distal tip of the tail, their tails were immersed in 0.15 M NaCl immediately at 37° C. Tail bleeding time was defined as the time between cutting the tail and stable cessation of bleeding (no re-bleeding within 60s). […] If bleeding persisted at 15 minutes, bleeding was stopped by application of pressure. Data were analyzed using the Mann-Whitney test to compare medians between groups.

C57BL/6 mice [2] = assay: Cecal ligation and puncture (CLP) sepsis model; assay type: in vivo, mouse; settings: bolus 2.5 μmol/kg then 1.25 μmol/kg/hour i.v.
Description: CLP sepsis was induced as described previously (32, 33). In brief, mice (14- to 16-week-old with equal number of each gender) were anesthetized by intraperitoneal administration of ketamine (100 mg/kg body weight) and xylazine (8 mg/kg). After a midline laparotomy, the cecum was ligated at about 1 cm from the end and then subjected to a double “through and through” perforation with an 18-gauge needle. Sham-operated mice underwent the same procedure except for ligation and puncture of the cecum. After the procedure, an analgesic (buprenorphine, 0.1 mg/kg, s.c.) was given immediately and every 12 h thereafter for 3 d. At these time points, fluid resuscitation (prewarmed 0.9% NaCl, 0.05 ml/g body weight) was given through subcutaneous injection to prevent fluid loss and help the recovery of body temperature. […] The survival of mice was observed every 6 h for 8 days and analyzed by the Log Rank test (using Prism GraphPad software (ver. 5.0), San Diego, CA, USA). […]
Twenty-four hours after CLP, mouse blood was collected and added to an EDTA-rinsed microcentrifuge tube or citrate buffer. […] The kidney function markers BUN, creatinine and cystatin C and mouse liver function marker ALT were detected using corresponding kits according to the manufacturers' instructions. […]

| Compound | inflammation-induced hemorrhage (C57/BL6 mice) | tail bleeding time vs normal control (C57BL/6 mice [1]) | survival rate at 192 h (8 days), infusion immediately after CLP (C57BL/6 mice [2]) |
| --- | --- | --- | --- |
| CCCCCCCCCCCCCC(=O)N[C@@H](Cc1ccccc1)C(=O)N[C@@H](CCC(=O)O)C(=O)N[C@@H](CCCCN)C(=O)N[C@@H](CCC(=O)O)C(=O)N[C@@H](CCCCN)C(=O)N[C@@H](CC(C)C)C(=O)O [MB2mP6, Myr-FEKEKL] (Myristoyl-FEKEKL-OH; C-terminus assumed) | neither affected | neither affected | – |
| Myr-EFKKLE (Myristoyl-EFKKLE) [control peptide, scrambled control for MB2mP6 in micellar nanoparticle formulation (CLP study)] | – | – | 26% |
